For assay [1], the target named is T1, 14-3-3β/IRS1 peptide (Homo sapiens, UniProt P31946).
T1 construct: His6 (cleaved yes); made in house
T1 sequence (P31946 1-246): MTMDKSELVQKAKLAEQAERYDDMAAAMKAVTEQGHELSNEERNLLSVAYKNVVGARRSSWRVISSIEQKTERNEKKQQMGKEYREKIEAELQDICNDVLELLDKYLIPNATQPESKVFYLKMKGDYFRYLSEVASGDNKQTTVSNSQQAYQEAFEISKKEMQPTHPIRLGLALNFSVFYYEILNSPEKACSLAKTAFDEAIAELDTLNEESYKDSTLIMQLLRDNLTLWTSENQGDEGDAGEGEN
In words: FP assay of 14-3-3 partner protein peptide, IRS1. The format is binding. The note with it: 100 µM compound. The protocol:
The FITC-labeled peptides were dissolved in FP buffer (10 mM HEPES pH 7.4, 150 mM NaCl, 0.1% Tween20, 1 mg/mL BSA) to a final concentration of 100 nM or 10 nM. For the dose-response assays, a 14-3-3β concentration of 10 μM was used while titrating the compounds in a two-times dilution series and, for the other assays, a dilution series of 14-3-3β was made with constant concentration of compound. The dilution series were made in 384 Corning Black Round Bottom well plates and their polarization was measured with a Tecan Infinite F500 plate reader (ex. = 485 nm, em. = 535 nm). The method of fitting of the curves was: “log(agonist) vs. response – Variable slope (four parameters)” from GraphPad Prism. The equation is Y = Bottom + (Top-Bottom)/(1 + 10^((LogEC50-X)*HillSlope)).
Supplementary Figure 2. Stabilization of the interaction between 14-3-3β and a collection of different 14-3-3 partner protein peptides by CY00742 4. […] Background polarization was subtracted from all values, n=3 technical replicates. Source data are provided as a Source Data file.
(1 picture or pasted object on this page, not shown here)

The target in assay [2] is T2, 14-3-3/full-length CFTR interaction (Homo sapiens, UniProt P13569, DEL508-508).
T2 construct: expressed in transfected cells; host or cells: HEK 293 cells expressing F508del-CFTR (Carlile et al. 2015)
T2 sequence (P13569 with tags, fused parts or gaps DEL508-508): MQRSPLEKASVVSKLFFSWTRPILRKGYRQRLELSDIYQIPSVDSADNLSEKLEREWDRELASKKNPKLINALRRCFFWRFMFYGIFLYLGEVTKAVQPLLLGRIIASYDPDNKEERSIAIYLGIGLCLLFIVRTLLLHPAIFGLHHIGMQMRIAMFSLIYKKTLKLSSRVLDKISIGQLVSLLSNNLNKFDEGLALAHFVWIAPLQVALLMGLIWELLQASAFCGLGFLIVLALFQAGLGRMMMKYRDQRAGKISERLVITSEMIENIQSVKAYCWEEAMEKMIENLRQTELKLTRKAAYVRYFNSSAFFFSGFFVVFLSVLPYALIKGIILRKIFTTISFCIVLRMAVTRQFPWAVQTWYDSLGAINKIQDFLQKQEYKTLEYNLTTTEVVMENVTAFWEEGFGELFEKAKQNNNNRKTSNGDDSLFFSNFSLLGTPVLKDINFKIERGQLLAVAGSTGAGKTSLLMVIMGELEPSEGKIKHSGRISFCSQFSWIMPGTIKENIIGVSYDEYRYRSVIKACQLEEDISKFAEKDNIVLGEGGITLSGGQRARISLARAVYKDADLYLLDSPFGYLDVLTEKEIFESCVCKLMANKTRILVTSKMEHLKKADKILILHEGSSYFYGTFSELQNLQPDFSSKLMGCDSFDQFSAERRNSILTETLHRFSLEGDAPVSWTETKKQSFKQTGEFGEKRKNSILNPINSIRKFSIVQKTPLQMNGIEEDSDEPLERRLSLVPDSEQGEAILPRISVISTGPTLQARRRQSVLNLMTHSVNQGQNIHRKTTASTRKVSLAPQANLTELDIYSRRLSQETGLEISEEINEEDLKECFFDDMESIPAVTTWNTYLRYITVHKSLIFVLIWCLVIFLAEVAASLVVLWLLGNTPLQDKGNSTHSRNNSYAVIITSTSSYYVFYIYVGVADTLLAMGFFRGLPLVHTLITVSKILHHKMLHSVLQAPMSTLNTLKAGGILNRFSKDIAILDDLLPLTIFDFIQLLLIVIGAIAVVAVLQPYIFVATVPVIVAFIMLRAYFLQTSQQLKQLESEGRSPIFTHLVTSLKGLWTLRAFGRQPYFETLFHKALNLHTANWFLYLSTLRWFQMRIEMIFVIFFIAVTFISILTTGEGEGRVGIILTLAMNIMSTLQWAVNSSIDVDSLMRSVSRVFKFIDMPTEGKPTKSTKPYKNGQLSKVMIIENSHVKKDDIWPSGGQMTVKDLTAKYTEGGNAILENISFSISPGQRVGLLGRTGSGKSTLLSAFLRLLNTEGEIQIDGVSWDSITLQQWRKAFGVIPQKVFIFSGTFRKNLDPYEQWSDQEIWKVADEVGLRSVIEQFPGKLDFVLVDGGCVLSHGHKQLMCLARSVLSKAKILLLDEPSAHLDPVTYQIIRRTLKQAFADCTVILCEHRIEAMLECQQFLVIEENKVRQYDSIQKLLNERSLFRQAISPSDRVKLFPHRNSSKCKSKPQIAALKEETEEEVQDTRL
Description: Immunoprecipitation (pull-down) from HEK293 cells expressing F508del-CFTR. The note with it: 24 h, 10 μM. Type of assay: cell-based. The protocol: Background polarization was subtracted from all values, n = 3 technical replicates. g Immunoprecipitation study to show the effect of CY007424 on the interaction between of CFTR and 14-3-3 proteins. CFTR and separately 14-3-3 immunoprecipitation from HEK293 cells expressing F508del-CFTR after 24 h of CY007424 (10μM) (424) or vehicle alone (CON). LYS: cellular lysate prior to preclear, SUP: supernatant after specific bead incubation, PC: second preclear, LW: last wash after the immunoprecipitation IP are the specific antibody beads. IP, upper blot: probed with CFTR AB, lower blot: probed with 14-3-3 AB. Source data are provided as a Source Data file.
CFTR monoclonal-mAb (M3A7, ab270238 abcam) and 14-3-3 monoclonal-Rbt-Ab (Y62, ab32560 abcam) were separately covalently linked to Protein A–Sepharose (Pharmacia, NJ, U.S.A.) by cross-linking with dimethyl pimelimidate (DMP) utilizing standard procedures.
Briefly, Protein A–Sepharose beads were washed two times in 0.2 M sodium borate, pH 9.0 for 5 min each. The beads were then mixed with antibody (for 1 mL of beads use 0.5 mg of antibody). These were placed on a rotator and mixed continuously for 2 h at room temperature (RT). The beads were washed with sodium borate twice, followed by one wash with 0.2 M triethanolamine, pH 8.5. An equal volume of 40 mM DMP in 0.2 M triethanolamine was added. The mixture was mixed for 1 h at RT and the beads then collected. The beads were incubated in 0.2 M ethanolamine, pH 8.2 for 5 min at RT. Beads were washed with the sodium borate solution, and stored at 4 °C until use. Beads were rinsed in lysis buffer before use.
Once HEK 293 cells expressing F508del-CFTR (cells earlier described by Carlile et al. 2015)[29] were treated, they were harvested and immunoprecipitated as follows. Cells were washed twice in sterile TBS, trypsin-treated and transferred to a Falcon tube with media and sera and centrifuged at 800 g at RT for 5 min. Pellets were washed twice in TBS prewarmed to 37 °C and centrifuged at 800–1000 g for 5 min at 4 °C. […]

Assay [3] has as its target T3, (Homo sapiens, UniProt P13569+P31946).
T3 construct: His6 (cleaved yes); made in house; peptide synthetic
Description: FP assay, 14-3-3β titration at constant compound concentration (apparent KD). The format is binding. The note with it: FC 100 uM.

SMILES strings stand for the structures. Several values for one entry are separate records, joined by “and”; a condition that tells them apart may be missing. Identical values can stand only once. Entries after “also recorded” stand apart in the source; their conditions may differ.

T3 sequence (P13569 747-774 limits assumed, one chain of several): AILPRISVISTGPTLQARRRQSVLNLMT

On to `N=C(N)NCCCC1NCc2ccccc2Sc2ccccc2CNC(=O)C(Cc2ccc(O)cc2)NC(=O)C(CCCN)NC1=O` (stereo not drawn) [CY007424], for which the “stabilization of the 14-3-3/IRS1 peptide complex” value in assay [1] is listed as “some stabilization of the complex”. In addition, the “stabilizing effect on the 14-3-3/CFTR interaction in cells (pull-down)” value (“stabilizing effect” for short) in assay [2] was “stabilizing effect; also recorded: increased CFTR binding to 14-3-3”. As to `CC1NC(=O)C(CCCNC(=N)N)NC(=O)C2CCCN2Cc2cccc(c2)-c2ccccc2CNC(=O)C(CCCNC(=N)N)NC1=O` (stereo not drawn) [CY007476], the “stabilizing effect” value in assay [2] was “did not show a stabilizing effect; also recorded: did not enhance binding of 14-3-3”. As for `CN1CC(=O)NC(CCCNC(=N)N)C(=O)NC(CCC(N)=O)C(=O)NC(CCCNC(=N)N)C(=O)NCc2ccccc2-c2cccc(c2)C1` (stereo not drawn) [CY007491], the “stabilizing effect” value in assay [2] is given as “did not show a stabilizing effect; also recorded: did not enhance binding of 14-3-3”. On to `C=CC(C)(C)OC[C@H]1O[C@H](O[C@@H]2C3=C([C@H](C)COC(C)=O)C[C@H](O)[C@]3(C)/C=C3/[C@@H](COC)CC[C@H]3[C@@H](C)[C@H]2O)[C@H](O)[C@@H](OC(C)=O)[C@@H]1O` [FC-A, fusicoccin A, reference compound], for which the “Polarization, Everage no 14-3-3” value in assay [3] (average of no 14-3-3 wells) is 22.00. For the same molecule, the “Polarization, no 14-3-3” value in assay [3] (no 14-3-3, peptide 100 nM, replicates, listed as FC) was 23 and 21 and 22.
